Measurements from PMC3205048, “Differential Modulation of Beta-Adrenergic Receptor Signaling by Trace Amine-Associated Receptor 1 Agonists” (PLoS ONE, 2011).
Like-named read-outs stand apart in the source and are kept apart here.

Tests used:
Format in all cases: cell-based
hTAAR1 = target: T1, hTAAR1 (Homo sapiens, UniProt Q96RJ0); assay: cAMP accumulation (AlphaScreen) in HEK293 cells transiently transfected with hTAAR1
T1 construct: Full length human TAAR1 (hTAAR1, NM_138327.1) was subcloned; first 20 amino acids of bovine rhodopsin (N); expressed in transfected cells; host or cells: HEK293, transient transfection, vector pcDps
T1 sequence (Q96RJ0 1-339): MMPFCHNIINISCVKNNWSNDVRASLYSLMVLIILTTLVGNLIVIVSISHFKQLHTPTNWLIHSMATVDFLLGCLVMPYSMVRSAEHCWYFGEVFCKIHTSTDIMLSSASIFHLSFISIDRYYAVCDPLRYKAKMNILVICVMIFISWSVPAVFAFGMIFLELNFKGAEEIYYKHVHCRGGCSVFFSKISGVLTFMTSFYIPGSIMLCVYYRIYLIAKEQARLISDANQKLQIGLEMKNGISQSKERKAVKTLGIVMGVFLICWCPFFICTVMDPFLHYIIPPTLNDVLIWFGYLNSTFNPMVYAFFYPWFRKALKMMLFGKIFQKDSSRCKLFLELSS
Description: Figure 2 Functional characterization of hTAAR1 interacting with different trace amines. HEK293 cells transiently transfected with hTAAR1 and were incubated for 45 minutes with […] of PEA, OA and TYR. Basal signaling activity as well as activation of the Gs protein/adenylyl cyclase pathway was determined by AlphaScreen technology. Data represent mean ± SEM of cAMP accumulation after stimulation from 4–5 independent experiments performed in triplicates. […]. Data were analyzed using a paired one-tailed t-test.
Full length human TAAR1 (hTAAR1, NM_138327.1) was subcloned into the eukaryotic expression vector pcDps, N-terminally tagged with an hemagglutinin (5′ […] 3′) epitope via KpnI and SpeI restriction sites. For better cell surface expression hTAAR1 was additionally N-terminally fused with the first 20 amino acids of the bovine Rhodopsin [18], [33]. The human β1-adrenergic receptor (hADRB1, NM_000684.2)-pcDps construct cloned via KpnI/SpeI containing N-terminal (HA)-tag and C-terminal Flag-tag (5′ […] 3′).
Human embryonic kidney cells (HEK293) were cultured in Minimum Essential Medium (MEM) Earle's (Biochrom AG) supplemented with 10% FBS (PAA Laboratories GmbH), 100 U/ml penicillin, and 100 µg/ml streptomycin (Biochrom AG) and 2 mM L-glutamine (Invitrogen) at 37°C with 5% CO2. 48 well plates were coated with Poly-L-Lysine (Biochrom) and HEK293 cells were seeded with 37,500 cells per well. Transient transfection in triplicates with 84 ng DNA/well using metafectene according to manufactures instructions (Biontex, Munich, Germany) was performed 28 hours later. 40 hours after transfection cells were pre-incubated for 5 minutes with stimulation buffer containing of MEM Earle's media and 1 mM 3-isobutyl-1-methylxanthine (IBMX, Sigma). This stimulation buffer was used for all further steps. […]. Ligands were all purchased from Sigma, Munich. Controls were incubated with tyramine, β-phenylethylamine, octopamine or isoprenaline for 45 minutes. All reactions were performed at 37°C with 5% CO2 saturated air and stopped by aspirating medium. Cells were lysed at 4°C for 2 h on a shaking platform with cell lysis buffer containing […] HEPES, 0.1% BSA, 0.3% Tween20 and 1 mM IBMX.
(§1) The competitive cyclic adenosine-monophosphate (cAMP) assay via Alphascreen (Perkin Elmer Life Science, Inc., Boston, MA) was carried out according to the manufacturers' protocol. Briefly, 5 µl of each sample were transferred to a 384 well plate. Acceptor beads were diluted in 1X HBSS with […] HEPES, 0.1% BSA, pH 7.4 and incubated for 30 minutes at room temperature. Then donor beads and 50 µM biotinylated cAMP diluted in the same way were added and incubated for an hour at room temperature. Measurement of the plate was performed using Berthold Microplate Reader (Berthold Technologies GmbH & Co. KG). Results are expressed in fold over mock (unstimulated empty vector). Dose response curves and bar graphs with mean ± SEM as well as statistical analysis (paired one-tailed t-test) were generated using GraphPad Prism Version 4.03.
Supplementary file pone.0027073.s001.tif: Figure S1 Dose response curves of hTAAR1 agonists. […]. HEK293 transiently expressing hTAAR1 were stimulated with each trace amine in concentrations ranging 0.1 mM to 10 nM. Shown are dose response curves fold over basal means ± SEM from n≥4 independent experiments of measured cAMP in triplicates as described in Material and Methods. […]. Data were analyzed using paired one-tailed t-test tested against basal value of hTAAR1. (TIF) Click here for additional data file.

hADRB2 = target: T2, hADRB2 (Homo sapiens, UniProt P07550); assay: cAMP accumulation (AlphaScreen) in HEK293 cells transiently transfected with hADRB2, ligand alone or co-stimulation with ISOP; details: for agonistic effect of the ligand alone: ligand alone 6.7 nM to 6700 nM, 45 min; for effect on ISOP stimulation: pre-incubation 6.7 nM to 6700 nM 15 min, then ISOP 1 nM to 10000 nM 30 min
T2 construct: HA tag (N); expressed in transfected cells; host or cells: HEK293 (ATCC-LGC), transient transfection, vector pcDps
Description: (§2) We functionally tested the effects of particular trace amines at the human ADRB1 and ADRB2 (figure 3). […] Controls were stimulated with each trace amine and ISOP alone, respectively.
(§3) Figure 3 Characterization of hADRB1 and hADRB2 after trace amine challenge. HEK293 cells were transiently transfected with hADRB1 and hADRB2, respectively. […] As controls hADRB1 and hADRB2 were incubated with each substance alone with the same concentration for 45 minutes. Three to four independent experiments measured in duplex or tripletts mean ± SEM are depicted here. […] Maximal values were statistically analyzed using paired one-tail t-test compared to ISOP maximal stimulation. A-B) hADRB1 and hADRB2 were stimulated with ISOP and TYR alone and with both substances simultaneously.
Human β2-adrenergic receptor (ADRB2, NM_000024.5) was subcloned via EcoRI and SpeI with an N-terminal (HA)-tag as well.
Human embryonic kidney cells (HEK293) were cultured in Minimum Essential Medium (MEM) Earle's (Biochrom AG) supplemented with 10% FBS (PAA Laboratories GmbH), 100 U/ml penicillin, and 100 µg/ml streptomycin (Biochrom AG) and 2 mM L-glutamine (Invitrogen) at 37°C with 5% CO2. 48 well plates were coated with Poly-L-Lysine (Biochrom) and HEK293 cells were seeded with 37,500 cells per well. Transient transfection in triplicates with 84 ng DNA/well using metafectene according to manufactures instructions (Biontex, Munich, Germany) was performed 28 hours later. 40 hours after transfection cells were pre-incubated for 5 minutes with stimulation buffer containing of MEM Earle's media and 1 mM 3-isobutyl-1-methylxanthine (IBMX, Sigma). This stimulation buffer was used for all further steps. […] Ligands were all purchased from Sigma, Munich. Controls were incubated with tyramine, β-phenylethylamine, octopamine or isoprenaline for 45 minutes. All reactions were performed at 37°C with 5% CO2 saturated air and stopped by aspirating medium. Cells were lysed at 4°C for 2 h on a shaking platform with cell lysis buffer containing […] HEPES, 0.1% BSA, 0.3% Tween20 and 1 mM IBMX.
as §1, with “vector).” for “vector). Dose response curves and bar graphs with mean ± SEM as well as statistical analysis (paired one-tailed t-test) were generated using GraphPad Prism Version 4.03.”

hADRB1 = target: T3, hADRB1 (Homo sapiens, UniProt P08588)
T3 construct: HA tag (N); expressed in transfected cells; host or cells: HEK293 (ATCC-LGC), transient transfection, vector pcDps
Description: as §2, §3
Human embryonic kidney cells (HEK293) were cultured in Minimum Essential Medium (MEM) Earle's (Biochrom AG) supplemented with 10% FBS (PAA Laboratories GmbH), 100 U/ml penicillin, and 100 µg/ml streptomycin (Biochrom AG) and 2 mM L-glutamine (Invitrogen) at 37°C with 5% CO2. […]
The competitive cyclic adenosine-monophosphate (cAMP) assay via Alphascreen (Perkin Elmer Life Science, Inc., Boston, MA) was carried out according to the manufacturers' protocol. […] Measurement of the plate was performed using Berthold Microplate Reader (Berthold Technologies GmbH & Co. KG). […]

[1] = ligand alone, 45 min, HEK293, cAMP, mean ± SEM
[2] = ligand alone, HEK293, cAMP accumulation, mean ± SEM, n≥3, read-out: EC50

T2 sequence (P07550 whole entry): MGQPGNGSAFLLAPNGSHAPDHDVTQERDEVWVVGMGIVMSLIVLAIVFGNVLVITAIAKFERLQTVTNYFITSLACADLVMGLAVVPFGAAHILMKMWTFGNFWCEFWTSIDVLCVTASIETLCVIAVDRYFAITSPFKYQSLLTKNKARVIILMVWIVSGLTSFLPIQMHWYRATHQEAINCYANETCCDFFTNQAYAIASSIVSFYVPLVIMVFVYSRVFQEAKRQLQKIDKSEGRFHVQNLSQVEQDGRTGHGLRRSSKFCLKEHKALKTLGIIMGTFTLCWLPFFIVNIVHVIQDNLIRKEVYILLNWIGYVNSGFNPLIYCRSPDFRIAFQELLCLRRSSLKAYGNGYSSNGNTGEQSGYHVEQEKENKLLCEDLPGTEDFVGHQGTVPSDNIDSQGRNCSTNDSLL
T3 sequence (P08588 whole entry): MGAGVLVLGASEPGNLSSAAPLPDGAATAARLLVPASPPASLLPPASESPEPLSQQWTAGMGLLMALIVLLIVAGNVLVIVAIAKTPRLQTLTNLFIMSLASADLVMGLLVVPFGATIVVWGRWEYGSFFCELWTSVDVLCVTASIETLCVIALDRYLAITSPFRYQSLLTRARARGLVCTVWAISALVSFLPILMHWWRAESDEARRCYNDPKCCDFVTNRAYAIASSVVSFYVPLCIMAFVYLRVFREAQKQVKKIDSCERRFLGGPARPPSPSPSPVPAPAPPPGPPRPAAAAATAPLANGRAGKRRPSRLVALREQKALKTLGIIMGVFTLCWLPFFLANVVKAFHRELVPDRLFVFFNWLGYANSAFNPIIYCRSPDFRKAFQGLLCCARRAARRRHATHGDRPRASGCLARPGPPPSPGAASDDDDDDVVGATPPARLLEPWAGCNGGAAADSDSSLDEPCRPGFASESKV

Compound	EC50 (hTAAR1) [nM]	Emax (hTAAR1) [nM]	activation of hTAAR1 (adenylyl cyclase stimulation, cAMP formation) (hTAAR1)	agonistic effect of the ligand alone (hADRB2)	effect on ISOP stimulation (hADRB2)	activation of hTAAR1 (adenylyl cyclase stimulation, cAMP formation) (hTAAR1; HEK293, 45 min)	Emax (hTAAR1; [1]) [nM]	EC50 (hTAAR1; [2]) [nM]	effect on ISOP stimulation (hADRB1)	agonistic effect of the ligand alone (hADRB1; ligand alone 6.7 nM to 6700 nM, 45 min)
NCCc1ccc(O)cc1 [TYR, tyramine]	1540 ± 251	219 ± 67	activate hTAAR1	no agonistic effect	allosteric antagonist					
NCC(O)c1ccc(O)cc1 (centres unmarked) [OA, octopamine]				no agonistic effect	orthosteric antagonist	activate hTAAR1	172 ± 42	4170 ± 1470		
NCCc1ccccc1 [PEA, β-phenylethylamine]				no agonistic effects	non-competitively antagonized	activate hTAAR1	403 ± 54	260 ± 16	non-competitively antagonized	no agonistic effects
